Literature values in patent US9492406B2, “Pharmaceutical composition” (IPCA Laboratories Limited, priority 2012, dated 2016).
Where two headings read alike, the source gives them in different places. One block for each molecule: values may come before it.

Key:
[1] = not given; remark: listed apart in the source
[2] = theophylline products of US2008248117

bioavailability (microfluidized microparticles supplied as suspension, with fat diet): 46-48%
bioavailability (oral non-sized suspension): about 23%
bioavailability (oral non-sized suspension, under fat fed condition): 46-48%
bioavailability (tablet formulations): ~12%
Structure (SMILES): O=C1C(O)=C([C@H]2CC[C@H](c3ccc(Cl)cc3)CC2)C(=O)c2ccccc21 [Atovaquone, trans-2-[4-(4-chlorophenyl)cyclohexyl]-3-hydroxy-1,4-naphthoquinone]

Release after 15 min in % ([1]; carbamazepine products of US2008248117, 15 min): 22%
Release after 30 min in % ([1]; carbamazepine products of US2008248117, 30 min): 53%
Structure (SMILES): NC(=O)N1c2ccccc2C=Cc2ccccc21 [Carbamazepine crystals, Carbamazepine]

Release after 15 min in % ([1]; theophylline products of US2008248117, 15 min): 34%
Release after 30 min in % ([1]; theophylline products of US2008248117, 30 min): 78%
Resistance to crushing [2]: 140
Structure (SMILES): Cn1c(=O)c2[nH]cnc2n(C)c1=O [Theophylline crystals, Theophylline]
